Patent publication US20240397947A1 (priority 2021, published 2024)

Columns and labels:
Type in all cases: in vivo
Xanthomonas campestris = test: Effect on Xanthomonas campestris on Zinnia, foliar spray; details: for Efficacy 12 DAT* (%): 1 spray application, 12 days after treatment, rate per substance as in Table 3
Protocol: Vegetatively mature zinnia plants were treated with pydiflumetofen treatments by foliar spray (for Xanthomonas or Pseudomonas spp.). One to two days post treatment, the plants were atomized with a bacterial suspension (1×10^8 cfu/mL, determined with a spectrometer) and maintained at 100% relative humidity for 24 to 48 hours to promote infection. The plants were then maintained in a greenhouse or outdoor shade structure and disease incidence and severity recorded, as well as plant health and fresh weight if applicable.

Xanthomonas orycea = test: Comparison of SDHI fungicides on Xanthomonas orycea / rice / preventative (bacterial blight of rice); details: for Efficacy (%): rice cv. Balilla, preventative spray, 14 days incubation
Protocol: 3 week old rice plants cv. Balilla were treated with the formulated test compound in a spray chamber. Two days after application rice plants were infected by cutting the upper leaf level and the bacteria suspension applied on the cutting edges. After an incubation period of 14 days at 23° C. and 80% relative humidity, a visual assessment of the disease level was performed.

Xanthomonas perforans = test: Greenhouse test on tomato plants inoculated with Xanthomonas perforans (tomato bacterial spot), injured leaf area; details: up to 18 days after inoculation
Protocol: The experiment was carried out in a greenhouse in the Olericulture Sector of the Federal University of Goiás. The location has temperature and humidity control. Tomato seedlings cv. Totalle with two true leaves were transplanted into 1 L pots containing professional growing media. Two days after transplanting, the first application of the substances was carried out. Bion (acibenzolar-S-methyl, 25 g product/ha—12.5 g ai/ha), Miravis (pydiflumetofen, 0.60 kg product/ha—120 g ai/ha), Kocide (copper hydroxide, 1.50 kg product/ha) and Kasumin (kasugamycin, 2 L product/ha) were evaluated. The untreated control received only water. For application, the pots were placed on the floor and spraying was carried out using a spray device (having 6 nozzles with 0.5 m spacing between nozzles) with a pressurized CO2 sprayer and a spray volume of 300 L/ha.
The applications were carried out on days 1, 7 and 14. On day 9 (between the second and third applications), inoculation with a Xanthomonas perforans isolate was performed. The plants were uniformly sprayed once over all leaves with a suspension of the pathogen at a concentration of […] colony forming units per millilitre (cfu/mL). Three evaluations were performed at 6, 13 and 18 days after inoculation (DAI), and the percentage of injured leaf (area of leaf with bacterial spot) area was calculated.

Ralstonia spp. = test: Effect on Ralstonia spp. on Geranium, drench, wilt
Protocol: Vegetatively mature geranium plants were treated with pydiflumetofen treatments by drench (Ralstonia spp.). One to two days post treatment, the inoculum was applied as a soil-drench. The plants were then maintained in a greenhouse or outdoor shade structure and disease incidence and severity were recorded.

SMILES	Efficacy 12 DAT* (%) (Xanthomonas campestris)	Efficacy (%) (Xanthomonas orycea; 6 Mg ai/L)	Efficacy (%) (Xanthomonas orycea; 20 Mg ai/L)	Efficacy (%) (Xanthomonas orycea; 60 Mg ai/L)	control of Xanthomonas perforans (in words) (Xanthomonas perforans)	control of Xanthomonas orycea (in words) (Xanthomonas orycea; 6 mg ai/L)	control of Xanthomonas orycea (in words) (Xanthomonas orycea; 20 to 60 mg ai/L)	control of Xanthomonas campestris (in words) (Xanthomonas campestris; spray)	control or suppression of Ralstonia spp. (in words) (Ralstonia spp.)	% Wilt 14 DAT (Ralstonia spp.; 14 DAT) [%]	% efficacity vs. inoculated check, 14 DAT (Ralstonia spp.; 14 DAT) [%]	% Wilt 28 DAT (Ralstonia spp.; 28 DAT) [%]	% efficacity vs. inoculated check, 28 DAT (Ralstonia spp.; 28 DAT) [%]
Cn1cc(C(=O)Nc2cccc3c2[C@@H]2CC[C@H]3C2=C(Cl)Cl)c(C(F)F)n1 (racemic) [Benzovindiflupyr, reference compound]	63												
O=C(Nc1ccccc1-c1ccc(Cl)cc1)c1cccnc1Cl [Boscalid]		0	0	0									
Cn1cc(C(=O)Nc2ccccc2-c2cc(F)c(F)c(F)c2)c(C(F)F)n1 [Fluxapyroxad]		0	0	0									
CC(C)c1ccc(Cl)cc1CN(C(=O)c1c(C(F)F)nn(C)c1F)C1CC1 [Isoflucypram]		0	0	0									
CON(C(=O)c1cn(C)nc1C(F)F)C(C)Cc1c(Cl)cc(Cl)cc1Cl (centres unmarked) [Pydiflumetofen, 3-(difluoromethyl)-N-methoxy-1-methyl-N-[1-methyl-2-(2,4,6-trichloro-phenyl)ethyl]-1H-pyrazole-4-carboxamide]	84	13	72	99	good control	marginal effect	good control	good control	control or suppression	3.5	84	18	87
